Data taken from the CheMixHub viscosity set.
± gives the uncertainty stated by the source.

Legend:
[1] = 100 kPa
[2] = xn = mol fraction of the nth substance listed

## CCCC[N+]1=C2CCCCCN2CCC1.c1c[n-]cn1
[1]; 293.15 K
  viscosity: 106.7 ± 3.5 mPa·s
[1]; 298.15 K
  viscosity: 73.92 ± 2 mPa·s
[1]; 303.15 K
  viscosity: 53.38 ± 1.2 mPa·s
[1]; 308.15 K
  viscosity: 40.19 ± 0.97 mPa·s
[1]; 313.15 K
  viscosity: 31.07 ± 0.75 mPa·s

## NCCOCCOCCN.O=S(=O)([N-]S(=O)(=O)C(F)(F)F)C(F)(F)F.[Li+] + O
[2]; 323.15 K, 101 kPa, x1 = 0.0299
  viscosity: 1.86 ± 0.13 mPa·s
[2]; 323.15 K, 101 kPa, x1 = 0.0598
  viscosity: 4.12 ± 0.23 mPa·s
[2]; 323.15 K, 101 kPa, x1 = 0.1028
  viscosity: 8.92 ± 0.36 mPa·s
[2]; 323.15 K, 101 kPa, x1 = 0.1994
  viscosity: 22.16 ± 0.68 mPa·s
[2]; 323.15 K, 101 kPa, x1 = 0.2969
  viscosity: 37.12 ± 1.1 mPa·s
[2]; 323.15 K, 101 kPa, x1 = 0.3942
  viscosity: 52.68 ± 1.5 mPa·s
[2]; 323.15 K, 101 kPa, x1 = 0.4958
  viscosity: 66.7 ± 2.3 mPa·s
[2]; 323.15 K, 101 kPa, x1 = 0.6022
  viscosity: 79.33 ± 3.4 mPa·s
[2]; 323.15 K, 101 kPa, x1 = 0.6956
  viscosity: 89.08 ± 4.3 mPa·s
[2]; 323.15 K, 101 kPa, x1 = 0.8777
  viscosity: 103.8 ± 5.9 mPa·s

## N[C@@H](Cc1ccc(O)cc1)C(=O)O + O
[2]; 303 K, 100 kPa, x1 = 0.00933
  viscosity: 0.8931 ± 0.019 mPa·s
[2]; 303 K, 100 kPa, x1 = 0.00952
  viscosity: 0.911 ± 0.019 mPa·s
[2]; 303 K, 100 kPa, x1 = 0.00967
  viscosity: 0.9501 ± 0.02 mPa·s
[2]; 303 K, 100 kPa, x1 = 0.00975
  viscosity: 0.9616 ± 0.021 mPa·s
[2]; 303 K, 100 kPa, x1 = 0.0098
  viscosity: 0.9874 ± 0.021 mPa·s
[2]; 303 K, 100 kPa, x1 = 0.00983
  viscosity: 1 ± 0.022 mPa·s

## C1CC[C@H]2CCCC[C@@H]2C1 + O=C1CCCCC1
[2]; 293.15 K, 101.3 kPa, x2 = 0.05
  viscosity: 2.114 ± 0.032 mPa·s
[2]; 293.15 K, 101.3 kPa, x2 = 0.15
  viscosity: 2.103 ± 0.03 mPa·s
[2]; 293.15 K, 101.3 kPa, x2 = 0.2415
  viscosity: 2.105 ± 0.029 mPa·s
[2]; 293.15 K, 101.3 kPa, x2 = 0.3447
  viscosity: 2.119 ± 0.028 mPa·s
[2]; 293.15 K, 101.3 kPa, x2 = 0.4511
  viscosity: 2.147 ± 0.028 mPa·s
[2]; 293.15 K, 101.3 kPa, x2 = 0.5088
  viscosity: 2.168 ± 0.027 mPa·s
[2]; 293.15 K, 101.3 kPa, x2 = 0.6731
  viscosity: 2.253 ± 0.027 mPa·s
[2]; 293.15 K, 101.3 kPa, x2 = 0.6779
  viscosity: 2.256 ± 0.027 mPa·s
[2]; 293.15 K, 101.3 kPa, x2 = 0.7761
  viscosity: 2.326 ± 0.027 mPa·s
[2]; 293.15 K, 101.3 kPa, x2 = 0.8609
  viscosity: 2.397 ± 0.028 mPa·s
[2]; 293.15 K, 101.3 kPa, x2 = 0.9315
  viscosity: 2.466 ± 0.028 mPa·s
[2]; 303.15 K, 101.3 kPa, x2 = 0.05
  viscosity: 1.758 ± 0.026 mPa·s
[2]; 303.15 K, 101.3 kPa, x2 = 0.15
  viscosity: 1.744 ± 0.025 mPa·s
[2]; 303.15 K, 101.3 kPa, x2 = 0.2415
  viscosity: 1.737 ± 0.024 mPa·s
[2]; 303.15 K, 101.3 kPa, x2 = 0.3447
  viscosity: 1.737 ± 0.024 mPa·s
[2]; 303.15 K, 101.3 kPa, x2 = 0.4511
  viscosity: 1.744 ± 0.023 mPa·s
[2]; 303.15 K, 101.3 kPa, x2 = 0.5088
  viscosity: 1.75 ± 0.022 mPa·s
[2]; 303.15 K, 101.3 kPa, x2 = 0.6731
  viscosity: 1.784 ± 0.022 mPa·s
[2]; 303.15 K, 101.3 kPa, x2 = 0.6779
  viscosity: 1.785 ± 0.022 mPa·s
[2]; 303.15 K, 101.3 kPa, x2 = 0.7761
  viscosity: 1.815 ± 0.022 mPa·s
[2]; 303.15 K, 101.3 kPa, x2 = 0.8609
  viscosity: 1.848 ± 0.022 mPa·s
[2]; 303.15 K, 101.3 kPa, x2 = 0.9315
  viscosity: 1.88 ± 0.022 mPa·s

## CCCOCCO + O=C1CCCN1
[2]; 298.15 K, 101 kPa, x1 = 0.0058
  viscosity: 13.97 ± 0.14 mPa·s
[2]; 298.15 K, 101 kPa, x1 = 0.015
  viscosity: 13.55 ± 0.14 mPa·s
[2]; 298.15 K, 101 kPa, x1 = 0.035
  viscosity: 12.83 ± 0.13 mPa·s
[2]; 298.15 K, 101 kPa, x1 = 0.0681
  viscosity: 11.7 ± 0.12 mPa·s
[2]; 298.15 K, 101 kPa, x1 = 0.1013
  viscosity: 10.72 ± 0.12 mPa·s
[2]; 298.15 K, 101 kPa, x1 = 0.1517
  viscosity: 9.453 ± 0.1 mPa·s
[2]; 298.15 K, 101 kPa, x1 = 0.2214
  viscosity: 8.048 ± 0.092 mPa·s
[2]; 298.15 K, 101 kPa, x1 = 0.2526
  viscosity: 7.522 ± 0.088 mPa·s
[2]; 298.15 K, 101 kPa, x1 = 0.3008
  viscosity: 6.831 ± 0.082 mPa·s
[2]; 298.15 K, 101 kPa, x1 = 0.3725
  viscosity: 5.947 ± 0.074 mPa·s
[2]; 298.15 K, 101 kPa, x1 = 0.3786
  viscosity: 5.895 ± 0.073 mPa·s
[2]; 298.15 K, 101 kPa, x1 = 0.4257
  viscosity: 5.419 ± 0.069 mPa·s
[2]; 298.15 K, 101 kPa, x1 = 0.4698
  viscosity: 5.028 ± 0.066 mPa·s
[2]; 298.15 K, 101 kPa, x1 = 0.5219
  viscosity: 4.651 ± 0.062 mPa·s
[2]; 298.15 K, 101 kPa, x1 = 0.5519
  viscosity: 4.44 ± 0.06 mPa·s
[2]; 298.15 K, 101 kPa, x1 = 0.6236
  viscosity: 3.983 ± 0.054 mPa·s
[2]; 298.15 K, 101 kPa, x1 = 0.6987
  viscosity: 3.576 ± 0.05 mPa·s
[2]; 298.15 K, 101 kPa, x1 = 0.7597
  viscosity: 3.317 ± 0.047 mPa·s
[2]; 298.15 K, 101 kPa, x1 = 0.8327
  viscosity: 2.977 ± 0.043 mPa·s
[2]; 298.15 K, 101 kPa, x1 = 0.8764
  viscosity: 2.801 ± 0.041 mPa·s
[2]; 298.15 K, 101 kPa, x1 = 0.9045
  viscosity: 2.695 ± 0.04 mPa·s
[2]; 298.15 K, 101 kPa, x1 = 0.9327
  viscosity: 2.592 ± 0.039 mPa·s
[2]; 298.15 K, 101 kPa, x1 = 0.9694
  viscosity: 2.473 ± 0.037 mPa·s
[2]; 298.15 K, 101 kPa, x2 = 0.0135
  viscosity: 2.409 ± 0.036 mPa·s

## CCCOCCO + O=S1(=O)CCCC1
[2]; 303.15 K, 101 kPa, x2 = 0.0493
  viscosity: 1.842 ± 0.014 mPa·s
[2]; 303.15 K, 101 kPa, x2 = 0.1029
  viscosity: 1.682 ± 0.014 mPa·s
[2]; 303.15 K, 101 kPa, x2 = 0.1508
  viscosity: 1.659 ± 0.014 mPa·s
[2]; 303.15 K, 101 kPa, x2 = 0.1991
  viscosity: 1.748 ± 0.015 mPa·s
[2]; 303.15 K, 101 kPa, x2 = 0.2989
  viscosity: 2.284 ± 0.02 mPa·s
[2]; 303.15 K, 101 kPa, x2 = 0.3489
  viscosity: 2.685 ± 0.024 mPa·s
[2]; 303.15 K, 101 kPa, x2 = 0.3998
  viscosity: 3.16 ± 0.028 mPa·s
[2]; 303.15 K, 101 kPa, x2 = 0.4993
  viscosity: 4.193 ± 0.039 mPa·s
[2]; 303.15 K, 101 kPa, x2 = 0.5988
  viscosity: 5.262 ± 0.051 mPa·s
[2]; 303.15 K, 101 kPa, x2 = 0.7002
  viscosity: 6.392 ± 0.064 mPa·s
[2]; 303.15 K, 101 kPa, x2 = 0.8
  viscosity: 7.572 ± 0.078 mPa·s
[2]; 303.15 K, 101 kPa, x2 = 0.9012
  viscosity: 8.861 ± 0.094 mPa·s
[2]; 303.15 K, 101 kPa, x2 = 0.9504
  viscosity: 9.498 ± 0.1 mPa·s

## CCCOCCO + O=[N+]([O-])c1ccccc1
[2]; 298.15 K, 101 kPa, x2 = 0.0509
  viscosity: 2.336 ± 0.018 mPa·s
[2]; 298.15 K, 101 kPa, x2 = 0.1085
  viscosity: 2.326 ± 0.018 mPa·s
[2]; 298.15 K, 101 kPa, x2 = 0.2052
  viscosity: 2.316 ± 0.018 mPa·s
[2]; 298.15 K, 101 kPa, x2 = 0.3224
  viscosity: 2.304 ± 0.017 mPa·s
[2]; 298.15 K, 101 kPa, x2 = 0.3978
  viscosity: 2.292 ± 0.017 mPa·s
[2]; 298.15 K, 101 kPa, x2 = 0.4501
  viscosity: 2.279 ± 0.017 mPa·s
[2]; 298.15 K, 101 kPa, x2 = 0.5017
  viscosity: 2.262 ± 0.017 mPa·s
[2]; 298.15 K, 101 kPa, x2 = 0.5513
  viscosity: 2.241 ± 0.017 mPa·s
[2]; 298.15 K, 101 kPa, x2 = 0.6026
  viscosity: 2.216 ± 0.017 mPa·s
[2]; 298.15 K, 101 kPa, x2 = 0.6998
  viscosity: 2.154 ± 0.016 mPa·s
[2]; 298.15 K, 101 kPa, x2 = 0.8045
  viscosity: 2.066 ± 0.016 mPa·s
[2]; 298.15 K, 101 kPa, x2 = 0.9028
  viscosity: 1.957 ± 0.015 mPa·s
[2]; 298.15 K, 101 kPa, x2 = 0.9525
  viscosity: 1.888 ± 0.014 mPa·s
